Assay results from patent US20260224692A1, “T CELL-DIRECTED ANTI-AGING AND ANTI-CANCER VACCINES AGAINST COMMENSAL CYTOMEGALOVIRUS” (The General Hospital Corporation, priority 2023, published 2026).

Columns and labels:
senescent fibroblasts = experiment: SCFA-mediated CD4+ T cell stimulation assay: T cell-mediated cytotoxicity against senescent fibroblasts; type: cell-based, human; conditions: T cells exposed to 5 mM SCFA for 2 days; 6 h co-culture; T cell to fibroblast ratio 50:1
Description: FIGS. 15A-15B. […] (A) The frequency of cleaved caspase-3^+ senescent fibroblasts after co-culture for 6 h with skin T cells, which are preincubated with each 5 mM SCFAs for 2 days, using a skin T cell to fibroblast ratio of 50:1. All data are expressed as the mean±SD. n=3 individuals. (B) The effect of each SCFA (5 mM) treatment on the cytotoxicity of CD4^+ T cells. Flow cytometry analysis of perforin and CD107a expression on CD4^+ T cells exposed to each SCFA for 24 h. n=2 individuals. All data are expressed as the mean±SD.
T cells were seeded at a density of 2.5×10^5 cells into 60 mm dish, and were added to each 5 mM SCFAs, including butylate (EMD Millipore), pentanoate (Ambeed Inc), or propionate (Sigma-Aldrich) with 20 ng/ml human IL-2 recombinant and 20 ng/ml human IL-15 recombinant for 2 days. Following 2 days of co-incubation, T cells were subsequently added to each senescent fibroblasts-placed wells and were cultured in T cell medium with 20 ng/ml human IL-2 recombinant and 20 ng/ml human IL-15 recombinant in 24 well plate (Ratios of 50:1 T cells-to fibroblasts respectively). Following 6 hr of co-incubation, remaining fibroblasts were stained with vimentin and cleaved caspase-3 to examine the frequency of T cell-mediated cytotoxicity against senescent fibroblasts. […]

skin CD4+ T cells = experiment: Flow cytometry analysis of perforin and CD107a expression on CD4+ T cells exposed to SCFA; type: cell-based, human; conditions: 5 mM SCFA, 24 h
Description: FIGS. 15A-15B. Butyrate and pentanoate boost CD4 CTL-mediated clearance of senescent cells. (A) The frequency of cleaved caspase-3^+ senescent fibroblasts after co-culture for 6 h with skin T cells, which are preincubated with each 5 mM SCFAs for 2 days, using a skin T cell to fibroblast ratio of 50:1. All data are expressed as the mean±SD. n=3 individuals. (B) The effect of each SCFA (5 mM) treatment on the cytotoxicity of CD4^+ T cells. Flow cytometry analysis of perforin and CD107a expression on CD4^+ T cells exposed to each SCFA for 24 h. n=2 individuals. All data are expressed as the mean±SD.
Cells were washed once with PBS, including 5% newborn calf serum (Thermo Fisher Scientific, 26010074) and 0.01% sodium azide (Sigma-Aldrich, S2002-100G), and stained with antibodies (Tables 3B and 3B) on ice for 30 min followed by secondary antibody if needed (Table 3A). Following the surface marker staining, cells were fixed and permeabilized for intracellular staining using True-Nuclear Transcription Factor Buffer Set (BioLegend, 424401). Permeabilized cells were stained with antibodies (Table 3A) overnight at 4° C. […] Data were analyzed using FlowJo software (BD Life Sciences, Franklin Lakes, NJ). Relative fluorescence intensity was calculated by subtracting the median fluorescence intensity of isotype control from the median fluorescence intensity of stained samples.

human skin CD4 CTLs = experiment: Trans-well migration assay; type: cell-based; conditions: recombinant human CXCL9 50 nM (585 ng/mL) in bottom well, 60 min, vs PBS carrier
From the text: FIGS. 6A-6E. CXCL9 promotes the migration of human skin-resident CD4 CTLs. […] The percent cells in each gate are shown on the flow-cytometry plots. Zombie fixable viability dye (Viability) marks dead cells. (B) Representative flow-cytometry plots of CXCR3 expression on CD4^+ and CD8^+ T cells in the human skin. Numbers on the flow-cytometry plots represent the percent cells within each gate. (C) The experimental scheme for trans-well migration assay using the immune cells isolated from the human skin. (D and E) The effect of CXCL9 recombinant protein (585 ng/mL) treatment on the migration of human skin CD4 CTLs (D) and CD8^+ T cells (E). Skin samples from two independent donors were used to isolate skin-resident immune cells (female skin donors). Bar graphs show mean±SD, Mann-Whitney U test.
Skin-isolated cells were seeded at a density of 1.5×10^4 cells/well into the top inserts of the 24-well trans-well plate (Corning, 07-200-149). The pore size is 5 μm. RPMI containing recombinant human CXCL9 (PeproTech, 300-26) or PBS (carrier only) at the concentration of 50 nM was added into the bottom well. Skin-isolated cells were incubated for 60 min. Then, cells were counted and stained as described in the flow cytometry section.

| Molecule | apoptosis (cleaved caspase-3+) in senescent fibroblasts by SCFA-exposed skin T cells (senescent fibroblasts) | expression of perforin+ and CD107a+ on CD4+ T cells (cytotoxicity capacity) (skin CD4+ T cells) | migration of human skin CD4 CTLs (human skin CD4 CTLs) |
| --- | --- | --- | --- |
| CCCCC(=O)O [pentanoate] | highly induced apoptosis | increase | – |
| CCCC(=O)O [butyrate] | highly induced apoptosis | increase | – |
| CXCL9: recombinant human CXCL9 chemokine (PeproTech, 300-26), ligand of CXCR3 (protein, UniProt Q07325 23-125, looked up) C-X-C motif chemokine 9: TPVVRKGRCSCISTNQGTIHLQSLKDLKQFAPSPSCEKIEIIATLKNGVQTCLNPDSADVKELIKKWEKQVSQKKKQKNGKKHQKKKVLKVRKSQRSRQKKTT | – | – | significantly induced the migration of CD4 CTLs |
